In patent US20090131500A1, “PORPHYRIN DERIVATES AND THEIR USE AS PHOTOSENSITIZERS IN PHOTODYNAMIC THERAPY” (priority 2006, published 2009):

Legend:
Format in all cases: physicochemical
[1] = Transient absorption spectra (ISC / triplet quantum yield)
Method: To measure transient absorption spectra (TAS), a white light continuum was generated as a test beam in a cell with D2O/H2O mixture using intense 25 ps single pulses from a Nd:YAG laser (Ekspla) at 1064 nm. Before passing through the sample, the continuum radiation was split to get a reference spectrum. The transmitted as well as the reference beam were focused into two optical fibers and were recorded simultaneously at different traces on a CCD-matrix (Lot-Oriel, Instaspec IV). The tunable radiation of a OPO/OPG (Ekspla, tuning range 210-2300 nm) pumped by the third harmonic of the same laser was used for excitation of the samples. The mechanical delay line allowed measuring the light-induced changes in the absorption spectrum at different time delays up to 15 ns after excitation.

[2] = Ground state absorption spectrum
Method: (§1) The ground state absorption spectra were recorded at room temperature using a commercial spectrophotometer Shimadzu UV-2501PC. Steady-state fluorescence spectra were measured in 1 cm×1 cm quartz optical cells using a combination of a cw-Xenon lamp (XBO 150) and a monochromator (Lot-Oriel, bandwidth 10 nm) for excitation and a polychromator with a cooled CCD matrix as a detector system (Lot-Oriel, Instaspec IV).

[3] = Time-resolved singlet oxygen luminescence at 1270 nm (singlet oxygen quantum yield); details: excitation at 510 nm, Pheo as reference
Method: Photosensitizer-generated time-resolved singlet oxygen luminescence was measured at 1270 nm. A nanosecond Nd-YAG laser (BMI) equipped with an OPO (BMI) was used to excite the samples at 510 nm and the luminescence signal was recorded by a germanium pin diode (Northcoast). To calculate the singlet oxygen quantum yield, (DA, the solution of Pheo in DMF as well as in ethanol were used as reference (ΦΔ^Pheo=0.52).

[4] = Steady-state fluorescence spectrum (fluorescence quantum yield)
Method: as §1

ISC quantum yield ΦISC [1]: 0.95±0.05
absorption band of the first excited singlet state ([2]; in ethanol (FIG. 1)): 690 nm
Qy-absorption at λ ([2]; room temperature): 690 nm
singlet oxygen quantum yield ΦΔ [3]: 0.9
fluorescence quantum yield ΦFl [4]: 0.02
Substance: 5^4, 10^4, 15^4, 20^4-tetra-t-butyl[3,5^2]-ethano-5^6-methyl-3^1-oxo-5,10,15,20-tetraphenylporphyrin [FB-1-CO]
